Experimental data from patent US6028222A (priority 1996, dated 2000).
Where “and” joins values, the source holds several entries; their conditions need not be identical. Identical values can stand only once. Like-named read-outs stand apart in the source and are kept apart here.

Tests used:
[1] = assay type: physicochemical; conditions: 48 hours
[2] = Stabilization of concentrated paracetamol solution by free radical scavengers; assay type: physicochemical; conditions: for Appearance upon exposure to light, color intensity: 48 hours actinic light; for Appearance at 70° C., color intensity: 48 hours, dark
Method: The solutions thus prepared are divided in 10 ml capacity vials, stoppered with a Bromobutyl stopper and capped with an aluminium cap. After autoclaving at 121° C. for 20 minutes, the vials were stored for 48 hours, either in the presence of actinic light at 5500° K. at room temperature or at 70° C. in the dark. The preparation was examined for any change in color.

[3] = Stabilization of dilute paracetamol solution by free radical scavengers (formula A); assay type: physicochemical; conditions: 48 hours
Method: (§1) The solutions thus prepared were divided in 10 ml, 100 ml or 80 ml capacity vials, stoppered with a Bromobutyl stopper and capped with an aluminium cap. The preparation was examined for any pink color development.
After autoclaving at 121° C. for 20 minutes, the vials were stored for 48 hours, either in the presence of actinic light at 5500° K. at room temperature or at 70° C. in the dark (formula A).

[4] = Stabilization of dilute paracetamol + codein phosphate solution by free radical scavengers; assay type: physicochemical; conditions: 48 hours
Method: The solutions thus prepared were divided in 10 ml capacity vials, stoppered with a Bromobutyl stopper and capped with an aluminium cap. […] The preparation was examined for any change in color.

[5] = Stabilization of dilute paracetamol solution by free radical scavengers (formulation B and C); assay type: physicochemical
Method: as §1

[6] = toxic metabolite of paracetamol; cited from earlier work
[7] = HPLC assay of paracetamol and codein before and after autoclaving; conditions: for assay, after sterilization: 121° C. 20 minutes
[8] = Paracetamol instability in solution and breakdown products; assay type: physicochemical
[9] = Solubility of paracetamol in dilute solutions (absorbance at 240 nm of filtrate); assay type: physicochemical
[10] = cited from earlier work
[11] = Predicted time to 5% decrease in paracetamol concentration (Arrhenius law); assay type: physicochemical; conditions: 25° C., optimal pH, aqueous solution; predicted by Arrhenius law
[12] = pH stability of concentrated paracetamol solution; assay type: physicochemical
Method: Vials that had been filled under nitrogen atmosphere by dispensing 10 ml of such solutions, tightly stoppered and capped, were sterilized by autoclaving at 121° C. for 20 minutes, and then in every case exposed, either to a temperature of 105° C. in the dark for 72 hours, or to a radiation of an actinic light at 5000° K. and 25° C. during 264 hours.

[13] = aqueous solution; cited from earlier work
[14] = tested on: extensor digitorum longus muscle; assay: Muscular tolerance (creatine kinase release from isolated muscle); set-up: species or system Sprague-Dawley rats; conditions: for creatine kinase activity: 15 μl injected
Method: The pH of this solution was not adjusted. Apparent pH is equal to 7,6.
Sprague-Dawley rats, weighing between 260 g and 450 g were anesthesized with an i.p. injection of ethyl carbamate (2 ml/kg of a 50% aqueous solution). The extensor digitorum longus muscle was dissected from the right or left hind leg, and placed in buffer medium having the following composition:
The muscle is transiently fixed to a board and maintained in position by tendons. The test product was injected in an amount of 15 μl by means of a 25 μl-capacity Hamilton seringe no 702. The muscle is then placed over a grit and immersed in the buffer solution kept at 37° C. with carbogen bubbling throughout the incubation period. At 30 minutes intervals, the muscles were introduced in a tube containing fresh buffer at 37° C. The procedure was repeated 4 times.
Creatine kinase was measured using a Hitachi 704 model analyzer in conjunction with a reagent kit sold under tradename high performance Enzyline CK NAC 10 (Biomerieux).

[15] = 0.2 mg/ml, 124° C. 7 minutes, 48 hours room temperature dark
[16] = C.R.L. 0.2 mg/ml, 124° C. 7 minutes, 48 hours room temperature dark
[17] = 50 mg/ml, 124° C. 7 minutes, 48 hours room temperature dark
[18] = containing 0.5 mg/ml of cystein hydrochloride
[19] = no free radical scavenger added

O[C@H](CS)[C@H](O)CS (racemic) [Dithiothreitol]
color at 70° C. ([1]; 1 mg/ml): violet pink | color upon exposure to light ([1]; 1 mg/ml): violet pink | Appearance upon exposure to light, color intensity ([2]; 1 mg/ml): colorless | Appearance at 70° C., color intensity ([2]; 1 mg/ml): colorless | color at 70° C. ([3]; 1 mg/ml): colorless | color upon exposure to light ([3]; 1 mg/ml): colorless | color at 70° C. ([4]; 0.5 mg/ml): colorless | color upon exposure to light ([4]; 0.5 mg/ml): colorless

Cl.N[C@@H](CS)C(=O)O.O [Cystein hydrochloride monohydrate]
Solution appearance, color [5, 15]: colorless | Solution appearance, color ([5]; 0.5 mg/ml, 124° C. 7 minutes, 48 hours room temperature dark): colorless | Dosage of paracetamol (in % of theoretical volume) [5, 16]: 99.2% | Dosage of paracetamol (in % of theoretical volume) ([5]; C.R.L. 0.5 mg/ml, 124° C. 7 minutes, 48 hours room temperature dark): 99.6% | Dosage of C.R.L. (in % of theoretical volume) ([5]; dilute paracetamol solution, 2880 min, hydrochloride monohydrate): 80% and 95%

Cl.N[C@@H](CS)C(=O)O [Cystein hydrochloride]
Appearance upon exposure to light, color intensity ([2]; 1 mg/ml): cloudy | Appearance at 70° C., color intensity ([2]; 1 mg/ml): cloudy | color at 70° C. ([3]; 0.05 mg/ml): colorless | color upon exposure to light ([3]; 0.05 mg/ml): colorless | color at 70° C. ([3]; 0.1 mg/ml): colorless | color upon exposure to light ([3]; 0.1 mg/ml): colorless | color at 70° C. ([3]; 0.25 mg/ml): colorless | color upon exposure to light ([3]; 0.25 mg/ml): colorless | color at 70° C. ([3]; 0.5 mg/ml): colorless | color upon exposure to light ([3]; 0.5 mg/ml): colorless | color at 70° C. ([3]; 0.75 mg/ml): colorless | color upon exposure to light ([3]; 0.75 mg/ml): colorless | color at 70° C. ([3]; 1 mg/ml): colorless | color upon exposure to light ([3]; 1 mg/ml): colorless | color at 70° C. ([3]; 2 mg/ml): colorless | color upon exposure to light ([3]; 2 mg/ml): colorless | color at 70° C. ([3]; 5 mg/ml): colorless | color upon exposure to light ([3]; 5 mg/ml): colorless | color at 70° C. ([4]; 0.05 mg/ml): pink | color at 70° C. ([4]; 1.0 mg/ml): colorless | color upon exposure to light ([4]; 1.0 mg/ml): colorless | color at 70° C. ([4]; 2.0 mg/ml): colorless | color upon exposure to light ([4]; 2.0 mg/ml): colorless | color at 70° C. ([4]; 5.0 mg/ml): colorless | color upon exposure to light ([4]; 5.0 mg/ml): colorless

OC[C@@H](O)[C@@H](O)[C@H](O)[C@H](O)CO [Mannitol]
Appearance upon exposure to light, color intensity ([2]; 50 mg/ml): colorless | Appearance at 70° C., color intensity ([2]; 50 mg/ml): colorless | Solution appearance, color ([5]; 20 mg/ml, 124° C. 7 minutes, 48 hours room temperature dark): colorless | Solution appearance, color ([5]; 40 mg/ml, 124° C. 7 minutes, 48 hours room temperature dark): colorless | Solution appearance, color [5, 17]: colorless

CC(=O)N=C1C=CC(=O)C=C1 [N-acetyl-p-benzoquinone-imine]
toxic effect [6]: cytotoxic and hemolytic effect

CC(=O)N[C@@H](CS)C(=O)O [N-acetylcystein]
Dosage of C.R.L. (in % of theoretical volume) [5, 15]: 88% | Solution appearance, color [5, 15]: colorless | Dosage of paracetamol (in % of theoretical volume) [5, 16]: 99.2% | color at 70° C. ([4]; 2.0 mg/ml): grey | color upon exposure to light ([4]; 2.0 mg/ml): grey

N[C@@H](CCC(=O)N[C@@H](CS)C(=O)NCC(=O)O)C(=O)O [Reduced glutathion]
Appearance upon exposure to light, color intensity ([2]; 1 mg/ml): colorless | Appearance at 70° C., color intensity ([2]; 1 mg/ml): colorless | Appearance upon exposure to light, color intensity ([2]; 8 mg/ml): colorless | Appearance at 70° C., color intensity ([2]; 8 mg/ml): colorless | color at 70° C. ([3]; 1 mg/ml): colorless | color upon exposure to light ([3]; 1 mg/ml): colorless | color at 70° C. ([4]; 2.0 mg/ml): colorless | color upon exposure to light ([4]; 2.0 mg/ml): colorless

O=C1O[C@H]([C@@H](O)CO)C([O-])=C1O.[Na+] [Sodium ascorbate]
color at 70° C. ([1]; 1 mg/ml): yellow | color upon exposure to light ([1]; 1 mg/ml): yellow | Appearance upon exposure to light, color intensity ([2]; 1 mg/ml): yellow (+) | Appearance at 70° C., color intensity ([2]; 1 mg/ml): yellow (+) | color at 70° C. ([3]; 0.2 mg/ml): pink | color upon exposure to light ([3]; 0.2 mg/ml): pink | color at 70° C. ([3]; 0.4 mg/ml): yellow | color upon exposure to light ([3]; 0.4 mg/ml): colorless | color at 70° C. ([3]; 0.6 mg/ml): yellow | color upon exposure to light ([3]; 0.6 mg/ml): pink | color at 70° C. ([3]; 1 mg/ml): yellow | color upon exposure to light ([3]; 1 mg/ml): colorless

O=S([O-])OS(=O)[O-].[Na+].[Na+] [Sodium disulfite]
color at 70° C. ([1]; 0.295 mg/ml): yellow | color upon exposure to light ([1]; 0.295 mg/ml): yellow | Appearance upon exposure to light, color intensity ([2]; 0.295 mg/ml): colorless | Appearance at 70° C., color intensity ([2]; 0.295 mg/ml): colorless | color at 70° C. ([4]; 0.295 mg/ml): colorless | color upon exposure to light ([4]; 0.295 mg/ml): colorless

NC(N)=S [Thiourea]
color at 70° C. ([3]; 0.5 mg/ml): colorless | color upon exposure to light ([3]; 0.5 mg/ml): colorless

COc1ccc2c3c1O[C@H]1[C@@H](O)C=C[C@H]4[C@@H](C2)N(C)CC[C@@]341 [codein]
assay, non sterilized solution [7, 18]: 0.00042 g/mL | assay, after sterilization [7, 18]: 0.00042 g/mL | assay, non sterilized solution [7, 19]: 0.00043 g/mL | assay, after sterilization [7, 19]: 0.00042 g/mL

Nc1ccc(O)cc1 [p-aminophenol]
p-aminophenol during storage ([8]; aqueous or partially aqueous solutions): not detected

CC(=O)Nc1ccc(O)cc1 [paracetamol, N-acetyl-p-aminophenol]
effect of PEG on paracetamol solubility [9]: increased by the presence of PEG | assay, non sterilized solution [7, 18]: 0.0082 g/mL | assay, after sterilization [7, 18]: 0.0081 g/mL | assay, non sterilized solution [7, 19]: 0.0078 g/mL | assay, after sterilization [7, 19]: 0.0077 g/mL | p-aminophen content from hydrolysis, % of initial paracetamol concentration ([10]; 0.1% aqueous solution, dark, 120 days): ~19,8% | ammonia yield with EDTA added ([10]; 1000 ppm of ascorbic acid + EDTA (0.0075%)): ≤ 14% | ammonia yield upon exposure to bright light ([10]; 1000 ppm of ascorbic acid): 98% | decomposition rate with EDTA ([10]; EDTA 0.0075%, 0.1% aqueous solution): 7% | ammonia concentration on distilling an alkaline solution ([10]; in presence or not of 1000 ppm of ascorbic acid): 14% | time needed to observe a 5% decrease in paracetamol concentration [11]: 19 months | Color development upon storage in the presence of light ([12]; pH 7,0 (actual pH 5,8), actinic light, 264 hours): extremely weak | effect of pH on paracetamol content and breakdown products ([12]; storage in the presence of light): Neither the paracetamol content, nor the breakdown products are affected by pH | time to color development ([8]; 50° C., in water or in solution no 20): 2 weeks | color upon exposure to light or storage at high temperature ([8]; in water or in solution no 20): shows rapidly a pink color | pH of minimal breakdown [13]: ~6

OCC(O)CS (stereo not drawn) [α-monothioglycerol]
Appearance upon exposure to light, color intensity ([2]; 1 mg/ml): colorless | Appearance at 70° C., color intensity ([2]; 1 mg/ml): colorless | color at 70° C. ([4]; 0.5 mg/ml): grey | color upon exposure to light ([4]; 0.5 mg/ml): grey

Glucose
Solution appearance, color [5, 17]: colorless

Triton-X
creatine kinase activity ([14]; 30 min): 1802 ± 2114 IU/l | creatine kinase activity ([14]; 60 min): 1716 ± 978 IU/l | creatine kinase activity ([14]; 90 min): 155 ± 89 IU/l | creatine kinase activity ([14]; 120 min): 289 ± 251 IU/l | creatine kinase activity, Total ([14]; Total of 30-120 min): 14962 IU/l
